This note sets out measurements from patent US8790883B2, “Methods of identifying NF-κB inhibitors” (priority 2003, dated 2014).

Ends that are not written are not given here. Peptide text beside a SMILES is read from it. * marks the point of attachment. BODIPYFLEthylmaleimide = Cc1cc(C)n2c1C=C1C=CC(CCC(=O)NCCN3C(=O)CC(*)C3=O)=[N+]1[B-]2(F)F; BODIPY = not defined here; Cam = NC(=O)C*

The nature of data set [1]: Cytotoxicity of NLM-DR derived peptides (MTS, FACS, microscope), Table 2.
For data set [2], the system named is human retinoblastoma cell lines Y79. As to the kind of experiment: Cell death assay (MTS) in retinoblastoma cell line Y79. It counts as cell-based. Conditions: for Y79 cells died: 5 μM concentration, longer treatment (FIG. 8C); for Induction of Y79 cell death: 3 hours, various concentrations, peptides without BODIPY. The protocol:
Rb cell line Y79 were treated with various concentration of the Ant-CC2 (WT) (filled squares) or Ant-CC2 (Mu) (open squares) (A), or Ant-LZ (WT) (filled circles), or Ant-LZ (Mu) (open circles) (B), or Ant peptide (open triangle) (C) for 3 hours (A, B) or 16 hours (C). Cell survival was then evaluated using the MTS assay as described in “Materials and methods”
The detection of cell death was performed using the MTS assay provided by Promega (CellTiter 96® AQueous one solution cell proliferation assay). Briefly, 0.3×10^6 Y79 cells in 450 μl were treated with 50 μl of the wild type Ant-CC2 and Ant-LZ peptides (0.1 to 20 μM) or their mutants Ant-CC2 (Mu), Ant-LZ (Mu) or the Ant or left untreated in serum-free RPMI medium at 37° C. After an incubation of […], an aliquot of the cell suspension (200 μl, 0.12×10^6 cells), was then transferee in 96-well plates and mixed with the MTS solution (40 μl) containing the MTS compound and the phenazine ethosulfate. Two hours after, the quantity of formazan produced by viable cells was measured using an automated microplate reader (Bio-TeK Instruments, INC) at 490 nm absorbance. Cell survival was observed under microscope and was estimated as a percentage of the value of untreated controls. The background of the reaction was determined by mixing the MTS solution with cell-free RPMI medium. To increase the sensitivity of the cell death assay, the present inventors used peptides devoid of BODIPY-labeling because the absorption spectra of the fluorophor overlaps with that of the formazan product. All experiments were repeated twice and each experiment condition was repeated in duplicate wells in each experiment.

Data set [3] deals with LPS-induced NF-κB activation. The experiment in a line: NF-κB inhibition assay, first procedure: LPS-induced NF-κB dependent β-galactosidase reporter in 70Z/3-C3 cells. Conditions: for LPS-induced NF-κB activation in presence of peptide: 20 μM peptide 2 h, LPS (3 μg/ml) 5 h, 70Z3-C3 cells. It counts as cell-based, murine.
Description: The resulting cell line, 70Z3-C3, was incubated for 2 hours in the absence or in the presence of 20 μM of antennapedia peptide (Ant), or BODIPY-labeled antennapedia peptide (BODIPY-Ant), or BODIPY-labeled antennapedia peptide coupled to CC2 (BODIPY-Ant-CC2) or LZ (BODIPY-Ant-LZ) peptides, After peptide internalization, cells were treated for 5 hours with LPS (3 μg/ml, (+) in left panel) or untreated (right panel and (−) in left panel) and the NF-κB activity was measured by β-galactosidase assay. Error bars represent the standard deviation of three separate experiments. (B) Concentration dependence of inhibition of LPS-induced NF-κB activation by BODIPY-Ant-CC2 peptide (left panel) or BODIPY-Ant-LZ peptide (right panel). Cells were treated as in (A) but with different concentration of peptide as indicated. The potential of each peptide to inhibit LPS-induced NF-κB activation was measured by determining the IC50 value that correspond to 50% inhibition of LPS-induced NF-κB activation as compared to the control (no peptide) (C). (D) Effect of the N-fusion sequence of antennapedia on the inhibition of NF-κB activation. Control (no peptide) or CC2, or LZ peptides, with (BODIPY-ANT-CC2, BODIPY-ANT-LZ) or without the antennapedia sequence at the N-terminus (CC2, LZ) were incubated for 2 hours with 70Z3-C3 cells followed with (+) or without (−) the LPS-treatment for 3 hours. NF-κB activity was then measured by β-galactosidase assay.
In a first procedure 2.2×10^5 70Z/3-C3 cells in 220 μl of RPMI 1640 supplemented with 10% fetal calf serum (FCS) and 50 μM β-mercaptoethanol were placed in a 96-well plate and incubated with various concentrations of peptide (0 to 20 μM) at 37° C. in 5% CO2 incubator. After two hours an equal portion (100 μl) of each cell sample transferred in two wells containing each 10^5 cells. One aliquot of cells was then treated for 5 hours with lipopolysaccharides from Salmonella abortus (Sigma) at 0.5 μg/ml final concentration, and the other one left-treated. After 5 hours, cells were centrifuged at 400×g for 5 min at room temperature and the cell pellets were washed three times with cold PBS (250 μl) by centrifugation. Cells were then lysed in the lysis buffer (25 mM tris-phosphate buffer at pH 7.8 containing 8 mM magnesium chloride, 1 mM dithioerythreitol, 1% Triton X-100, 15% glycerol and a protease inhibitor mixture (Roche)), and samples were centrifuged at 4° C. for 20 min to clarify the lysate. The supernatant was then kept on ice, and 30 μl was then assayed to measure the β-galactosidase activity with a plate luminometer (Berthold) using the GALACTON-STAR™ as chemiluminescent substrate (BD Biosciences Clontech, Bronstein et al., 1989). Background of reaction was measured by mixing for 1 hour 30 μl of lysis buffer with the reaction buffer (196 μl) and the GALACTON-STAR™ substrate (4 μl) provided by BD Biosciences. In a second procedure and a more stringent assay, 70Z/3-C3 cells (2.2×105 in 220 μl medium) were centrifuged at 400×g at room temperature after peptide internalization for 2 hours, and cell pellets were washed three times with 200 μl of PBS by centrifugation. Cells were then diluted three times with complete medium, and allowed to grow for at least 24 hours. The following steps are identical to the first procedure.
To analyze the inhibition potential of LPS-induced NF-κB activation by cell permeable BODIPY-Ant-CC2 and BODIPY-Ant-LZ peptides, the present inventors stably transfected the murine pre-B 70Z3 cell line with p12XlacZ-kB, which bears the β-galactosidase reporter gene under the control of the NF-κB transcription factor.
The test system of data set [4] is LPS-induced NF-κB activation. As to the kind of experiment: More stringent NF-κB inhibition assay, second procedure: peptide internalization, washing, 24 h growth, then LPS. In kind it is cell-based, murine. Conditions: 10 μM peptide. The source says:
Left panels show a helical wheel diagram of CC2 (A) and LZ (B) peptides. The view is from the top the molecule. The (a) through (g) positions, which are an essential feature of coiled coil sequence (Vinson, 2002, Mol. Cell. Biol.) represent sequential positions in each peptide sequence. The first (a) and fourth (d) positions that are generally occupied by hydrophobic amino acids constitute the hydrophobic core for parallel as well as antiparallel-coiled coils. Mutations that were introduced in (a) positions of the CC2 variant (BODIPY-Ant-CC2 (Mu); shown as residues 6-40 of SEQ ID NO:3, with glycine mutations corresponding to residues 6-40 of SEQ ID NO:5) or in (d) positions of the LZ variant (BODIPY-Ant-(Mu) are shown. In the right panels, 70Z3-C3 cells were incubated for 2 hours in the absence (control) or in the presence of 10 μM of cell permeable wild type (BODIPY-Ant-CC2 (WT)) or mutant (BODIPY-Ant-CC2 (Mu)) CC2 peptides (A) or wild type (BODIPY-Ant-LZ (WT)) or mutant (BODIPY-Ant-(Mu)) LZ peptides (B). The cells were then extensively washed to remove the excess peptide which had not been internalized and the cells were then diluted three times and allowed to grow for 24 hours before treatment for 5 hours with (+) or without LPS (−). NF-κB activity was measured using the β-galactosidase assay. Error bars represent the standard deviation of two independent experiments.
(A) Sequence alignment of the NEMO-derived LZ (residues 301-336 of SEQ ID NO: 12) and the GCN4 peptides (residues 23-55 of SEQ ID NO:8). Both coiled-coil motifs were aligned using clustalX. Identical and similar amino acid residues (shaded) are indicated by (!) or (*), respectively. (B) Overview and helical wheel diagram of the GCN4 coiled-coil (top view). The amino-acid sequence of GCN4 is shown with its corresponding [a-g] positions and residues that differ from the corresponding NEMO-derived LZ sequence are boxed according to their degree of conservation. Identical (open square) and similar residues (open triangle) are indicated. […] NF-κB activity was measured using the b-galactosidase assay. […]

A short description of data set [5]: Analytical gel filtration, oligomeric states of peptides. In kind it is physicochemical. As to conditions: 10 μM, Superdex 75, buffer with 0.1 mM DDM. How it is done:
All peptides were loaded at a 10 μM concentration on a superdex 75 HR10/30 column equilibrated in a buffer containing 0.1 mM DDM to improve recovery (see “Materials and methods”). Chromatographic profiles of the CC2 mutant (dashed line) and the CC2 wild type (solid line) fused (BODIPY-Ant-CC2 (WT), BODIPY-Ant-CC2 (Mu), or not fused to the antennapedia sequence (CC2 (WT), CC2 (Mu)) are shown in left panels, and elution profiles of the LZ mutant (dashed line) and the wild type (solid line) fused (BODIPY-Ant-LZ (WT), BODIPY-Ant-LZ (Mu), or not fused to the antennapedia sequence (LZ (WT), LZ (Mu)) are represented in right panels. Elution volumes of globular protein markers are indicated by arrows: Oval, ovalbumin (43 kDa); Chym, chymotrypsinogene A (25 kDa); Ribo, Ribonuclease (13.4 kDa) and Apro, aprotinin (6.5 kDa).
The oligomeric states of peptides were determined by filtration as described in Traincard et al., 2003. In brief, 500 μl samples were loaded on a SUPERDEX™ 75 HR 10/30 column equilibrated in 50 mM Tris-HCl pH 8.0 containing 200 mM NaCl and 0.1 mM DDM, at a constant flow rate of 0.4 ml/min. The presence of the DDM detergent was added in the equilibrium buffer to minimize the adsorption in the column and to increase the peptide recovery. The column was calibrated in the same equilibrium buffer with blue dextran 2000 (void volume), dithioerythritol (total volume), bovine serum albumin (67 kDa, Rs=35.2 Å), ovalbumine (43 kDa, Rs=27.5 Å), chymotrypsinogen A (25 kDa, Rs=21.1 Å), ribonuclease A (13.7 kDa, Rs=16.4 Å), cytochrome C (12.4 kDa, Rs=17.7 Å) and aprotinin (6.5 KDa, Rs=13.5 Å).

For `CC[C@H](C)[C@H](NC(=O)[C@H](CC(=O)O)NC(=O)[C@H](C)NC(=O)[C@H](CCC(N)=O)NC(=O)[C@H](C)NC(=O)[C@H](CCCCN)NC(=O)[C@H](CC(C)C)NC(=O)[C@H](CCCNC(=N)N)NC(=O)[C@H](CCCNC(=N)N)NC(=O)[C@H](CCCNC(=N)N)NC(=O)[C@H](CCC(N)=O)NC(=O)[C@H](CCCNC(=N)N)NC(=O)[C@H](CCCNC(=N)N)NC(=O)[C@H](CCCCN)NC(=O)[C@H](CCCCN)NC(=O)[C@H](CCCNC(=N)N)NC(=O)CNC(=O)[C@H](Cc1ccc(O)cc1)NC(=O)[C@H](CSC1CC(=O)N(CCNC(=O)CCC2=[N+]3C(=Cc4c(C)cc(C)n4[B-]3(F)F)C=C2)C1=O)NC(C)=O)C(=O)N[C@@H](Cc1ccc(O)cc1)C(=O)N[C@@H](CCCCN)C(=O)N[C@@H](C)C(=O)N[C@@H](CCCNC(=N)N)C(=O)N[C@@H](Cc1ccccc1)C(=O)N[C@@H](CCC(N)=O)C(=O)N[C@@H](C)C(=O)N[C@@H](CCC(=O)O)C(=O)N[C@@H](CCCNC(=N)N)C(=O)N[C@@H](Cc1c[nH]cn1)C(=O)N[C@@H](C)C(=O)N[C@@H](CCCNC(=N)N)C(=O)N[C@@H](CCC(=O)O)C(=O)N[C@@H](CCCCN)C(N)=O` (stereo partly shown) [BODIPY-TAT-NLM-DR] (Ac-C(BODIPYFLEthylmaleimide)YGRKKRRQRRRLKAQADIYKARFQAERHAREK-NH2), in data set [1], the “Cytotoxicity Cell morphology FACS” value is “no” and the “Cytotoxicity Cell morphology Microscope” value is listed as “no”. For “Ac-C(Cam)RQIKIWFQNRRMKWKKLKAQADIYKADFQAERHAREKLVEKKEYLQEQLEQLQREFNKL-NH2 [Ant-LZ]”, the Y79 cells died in data set [2] is on record as 80%. “Ac-C(Cam)RQIKIWFQNRRMKWKKSKGMQLEDLRQQLQQAEEALVAKQELIDKLKEEAEQHKIV-NH2 [Ant-CC2]” returned a Y79 cells died in data set [2] of 55%. As to “Ant-CC2 (Mu): mutant Ant-CC2 devoid of BODIPY-labeling (SEQ ID NO: 4) (Ac-CRQIKIWFQNRRMKWKKSKGMQLEDLRQQGQQAEEAGVAKQELGDKLKEEAEQHKIV-NH2)”, in data set [2], the “Induction of Y79 cell death” value was “did not induce concentration cell death”.

For the compound “Ant-LZ (Mu): mutant Ant-LZ devoid of BODIPY-labeling (SEQ ID NO: 8) (Ac-CRQIKIWFQNRRMKWKKLKAQADIYKADFQAERHAREKLVEKKEYSQEQLEQSQREFNKL-NH2)”, the “Induction of Y79 cell death” value in data set [2] is on record as “not”. As for “Ant: antennapedia/penetratin internalization peptide without BODIPY label (SEQ ID NO: 1) (CRQIKIWFQNRRMKWKK) [reference compound]”, in data set [3], the “LPS-induced NF-κB activation in presence of peptide” value is listed as “same level of NF-κB activation as the control”. In addition, in data set [2] (16 hours (FIG. 8C)), the “Effect on Y79 cell survival, longer treatment” value is recorded as “did not affect cell survival”.

Turning to “B-CRQIKIWFQNRRMKWKK ({BODIPY}-CRQIKIWFQNRRMKWKK; reading uncertain) [BODIPY-Ant, reference compound]”, the “LPS-induced NF-κB activation in presence of peptide” value in data set [3] was “same level of NF-κB activation as the control”. On to “B-CRQIKIWFQNRRMKWKKLKAQADIYKADFQAERHAREKLVEKKEYLQEQLEQLQREFNKL (C(BODIPY)RQIKIWFQNRRMKWKKLKAQADIYKADFQAERHAREKLVEKKEYLQEQLEQLQREFNKL-NH2; not fully specified (N-terminus); reading uncertain) [BODIPY-Ant-LZ (WT)]”, for which the “LPS-induced NF-κB activation in presence of peptide” value in data set [3] is listed as “decreased significantly”; in data set [3] (listed as “Leucine zipper” peptide) it was “completely eliminates cell response”. Take “B-CRQIKIWFQNRRMKWKKLKAQADIYKADFQAERHAREKLVEKKEYSQEQLEQSQREFNKL (C(BODIPY)RQIKIWFQNRRMKWKKLKAQADIYKADFQAERHAREKLVEKKEYSQEQLEQSQREFNKL-NH2; not fully specified (N-terminus); printed as B-CRQIKIWFQNRRMKWKKLKAQADIYKADFQAERHAREKLVEKKEYSQEQLEQSQREFNKL; reading uncertain) [BODIPY-Ant-LZ (Mu)]”: in data set [4], the “Inhibition of NF-κB activation compared to the control” value is 15%. As for “LKAQADIYKADFQAERHAREKLVEKKEYLQEQLEQLQREFNKL [LZ (WT)]”, the “LPS-induced NF-κB activation, peptides not fused to antennapedia” value in data set [3] (peptide 2 h, LPS 3 h, 70Z3-C3 cells (FIG. 3D)) is on record as “same level of activation as the control”. Moreover, in data set [5], the “Oligomeric state by gel filtration” value is on record as “dimer”. Consider “LKAQADIYKADFQAERHAREKLVEKKEYSQEQLEQSQREFNKL [LZ (Mu)]”, for which the “Oligomeric state by gel filtration” value in data set [5] was “still detected dimerization”.

“SKGMQLEDLRQQGQQAEEAGVAKQELGDKLKEEAEQHKIV [CC2 (Mu)]”: the “Oligomeric state by gel filtration” value in data set [5] is “lost its ability to oligomerize”.
